According to US7704995B2 (Exelixis, Inc., priority 2003, dated 2010):

Biological target: T1, Chk1 (Homo sapiens, UniProt O14757)
T1 construct: purchased Upstate Biotechnology
T1 sequence (O14757 1-476): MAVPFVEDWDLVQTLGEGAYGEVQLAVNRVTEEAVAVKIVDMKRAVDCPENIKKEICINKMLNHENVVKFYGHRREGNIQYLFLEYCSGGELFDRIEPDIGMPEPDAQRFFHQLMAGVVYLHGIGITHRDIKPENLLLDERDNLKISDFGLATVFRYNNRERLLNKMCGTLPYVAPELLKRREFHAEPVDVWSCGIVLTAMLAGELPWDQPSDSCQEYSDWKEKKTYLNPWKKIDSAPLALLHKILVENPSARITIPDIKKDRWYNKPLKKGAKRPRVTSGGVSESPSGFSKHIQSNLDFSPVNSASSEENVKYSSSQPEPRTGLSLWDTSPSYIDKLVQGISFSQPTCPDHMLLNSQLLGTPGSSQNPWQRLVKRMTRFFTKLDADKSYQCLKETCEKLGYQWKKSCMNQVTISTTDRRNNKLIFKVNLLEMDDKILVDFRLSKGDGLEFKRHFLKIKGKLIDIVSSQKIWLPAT
Assay: Chk1 kinase assay: incorporation of γ-33P ATP into immobilized myelin basic protein
Type: biochemical
Settings: read-out: Chk1 IC50
Method: Chk1 and Chk2 assays were performed by measuring incorporation of γ-^33P ATP into immobilized myelin basic protein (MBP). High binding white 384 well plates (Greiner) were coated with MBP (Sigma #M-1891) by incubation of 60 ul/well of 20 μg/ml MBP in Tris-buffered saline (TBS; 50 mM Tris pH 8.0, 138 mM NaCl, 2.7 mM KCl) for 24 hours at 4° C. Plates were washed 3× with 100 μl TBS. Kinase reactions were carried out in a total volume of 34 μl in kinase buffer (5 mM Hepes pH 7.6, 15 mM NaCl, 0.01% bovine gamma globulin (Sigma #I-5506), 10 mM MgCl2, 1 mM DTT, 0.02% TritonX-100). Compound dilutions were performed in DMSO and added to assay wells to a final DMSO concentration of 1%. Each data point was measured in duplicate, and at least two duplicate assays were performed for each individual compound determination. Chk1 and Chk2 enzymes (Upstate Biotechnology) were added to final concentrations of 10 nM (Chk1) or 20 nM (Chk2). A mixture of unlabeled ATP and γ-^33P ATP was added to start the reaction (2×10^6 cpm of γ-^33P ATP per well (3000 Ci/mmole) and either 10 μM or 30 μM unlabeled ATP (for Chk1 and Chk2 assays respectively). The reaction was carried out for 1 hour at room temperature with shaking. Plates were washed 7× with TBS, followed by the addition of 50 μl/well scintillation fluid (Wallac). Plates were read using a Wallac Trilux counter. This is only one format of such assays, various other formats are possible, as known to those skilled in the art.
The above assay procedure can be used to determine the IC50 for inhibition and/or the inhibition constant Ki. The IC50 is defined as the concentration of compound required to reduce the enzyme activity by 50% under the conditions of the assay. […] The Ki for a compound may be determined from the IC50 based on three assumptions. First, only one compound molecule binds to the enzyme and there is no cooperativity. […] Third, the enzymatic rate of the enzyme-inhibitor complex is zero. The rate (i.e., compound concentration) data are fitted to the equation: […]

With `CNC(=O)c1nc(-c2cccc(C(=O)NCCc3ccccc3)c2)cnc1N` [Example 94, 3-amino-N-methyl-6-(3-{[(2-phenylethyl)amino]carbonyl}phenyl)pyrazine-2-carboxamide] as the compound, how does the IC50 read?
The IC50 was 50 to 1000 nM.

For `CNC(=O)c1nc(-c2cccc(C(=O)NCc3ccc(OC)cc3)c2)cnc1N` [Example 95, 3-amino-N-methyl-6-{3-[({[4-(methyloxy)phenyl]methyl}amino)carbonyl]phenyl}pyrazine-2-carboxamide], which IC50 is on record?
Its IC50 is 50 to 1000 nM.

Which IC50 does the source give for `CNC(=O)c1nc(-c2cccc(C(=O)N[C@@H]3CCc4ccccc43)c2)cnc1N` [Example 96, 3-amino-6-(3-{[(1R)-2,3-dihydro-1H-inden-1-ylamino]carbonyl}phenyl)-N-methylpyrazine-2-carboxamide] here?
Its IC50 is 1000 to 10000 nM.

How did the IC50 turn out when `CNC(=O)c1nc(-c2cccc(C(=O)N[C@H]3CCc4ccccc43)c2)cnc1N` [Example 97, 3-amino-6-(3-{[(1S)-2,3-dihydro-1H-inden-1-ylamino]carbonyl}phenyl)-N-methylpyrazine-2-carboxamide] was run?
Its IC50 is 50 to 1000 nM.

`CNC(=O)c1nc(-c2cccc(C(=O)NCc3ccc(Cl)cc3)c2)cnc1N` [Example 98, 3-amino-6-[3-({[(4-chlorophenyl)methyl]amino}carbonyl)phenyl]-N-methylpyrazine-2-carboxamide] was tested. Which IC50 did it give?
Its IC50 is 50 to 1000 nM.

How did the IC50 turn out when `CNC(=O)c1nc(-c2cccc(C(=O)N(C)Cc3ccccc3)c2)cnc1N` [Example 99, 3-amino-N-methyl-6-(3-{[methyl(phenylmethyl)amino]carbonyl}phenyl)pyrazine-2-carboxamide] was run?
The IC50 was 1000 to 10000 nM.

`CNC(=O)c1nc(-c2cccc(C(=O)NCc3ccc(Cl)cc3Cl)c2)cnc1N` [Example 100, 3-amino-6-[3-({[(2,4-dichlorophenyl)methyl]amino}carbonyl)phenyl]-N-methylpyrazine-2-carboxamide] was tested. Which IC50 did it give?
The IC50 was 50 to 1000 nM.

How did the IC50 turn out when `CNC(=O)c1nc(-c2cccc(C(=O)NCc3ccc(C)cc3)c2)cnc1N` [Example 101, 3-amino-N-methyl-6-[3-({[(4-methylphenyl)methyl]amino}carbonyl)phenyl]pyrazine-2-carboxamide] was run?
Its IC50 is 50 to 1000 nM.

How did the IC50 turn out when `CNC(=O)c1nc(-c2cccc(C(=O)NCc3ccc(C(F)(F)F)cc3)c2)cnc1N` [Example 102, 3-amino-N-methyl-6-{3-[({[4-(trifluoromethyl)phenyl]methyl}amino)carbonyl]phenyl}pyrazine-2-carboxamide] was run?
Its IC50 is 50 to 1000 nM.

Which IC50 does the source give for `CNC(=O)c1nc(-c2cccc(C(=O)NCc3ccc(F)cc3)c2)cnc1N` [Example 103, 3-amino-6-[3-({[(4-fluorophenyl)methyl]amino}carbonyl)phenyl]-N-methylpyrazine-2-carboxamide] here?
Its IC50 is 50 to 1000 nM.

With `CNC(=O)c1nc(-c2cccc(C(=O)NC3Cc4ccccc4C3)c2)cnc1N` [Example 104, 3-amino-6-{3-[(2,3-dihydro-1H-inden-2-ylamino)carbonyl]phenyl}-N-methylpyrazine-2-carboxamide] as the compound, how does the IC50 read?
The IC50 was 50 to 1000 nM.

With `CNC(=O)c1nc(-c2cccc(NC(=O)c3cccc(OC)c3)c2)cnc1N` [Example 105, 3-amino-N-methyl-6-[3-({[3-(methyloxy)phenyl]carbonyl}amino)phenyl]pyrazine-2-carboxamide] as the compound, how does the IC50 read?
The IC50 was 50 to 1000 nM.

With `CNC(=O)c1nc(-c2cccc(NC(=O)c3ccc(OC)cc3)c2)cnc1N` [Example 106, 3-amino-N-methyl-6-[3-({[4-(methyloxy)phenyl]carbonyl}amino)phenyl]pyrazine-2-carboxamide] as the compound, how does the IC50 read?
Its IC50 is 50 to 1000 nM.

Which IC50 does the source give for `CNC(=O)c1nc(-c2cccc(C(=O)NCc3cccc(OC)c3)c2)cnc1N` [Example 107, 3-amino-N-methyl-6-{3-[({[3-(methyloxy)phenyl]methyl}amino)carbonyl]phenyl}pyrazine-2-carboxamide] here?
The IC50 was 50 to 1000 nM.

How did the IC50 turn out when `CNC(=O)c1nc(-c2cccc(C(=O)N[C@H](C)c3ccc(OC)cc3)c2)cnc1N` [Example 108, 3-amino-N-methyl-6-{3-[({(1R)-1-[4-(methyloxy)phenyl]ethyl}amino)carbonyl]phenyl}pyrazine-2-carboxamide] was run?
The IC50 was 1000 to 10000 nM.

How did the IC50 turn out when `CNC(=O)c1nc(-c2cccc(C(=O)NCc3ccccc3C(F)(F)F)c2)cnc1N` [Example 109, 3-amino-N-methyl-6-{3-[({[2-(trifluoromethyl)phenyl]methyl}amino)carbonyl]phenyl}pyrazine-2-carboxamide] was run?
Its IC50 is 50 to 1000 nM.

How did the IC50 turn out when `CNC(=O)c1nc(-c2cccc(C(=O)NCc3cccc(F)c3)c2)cnc1N` [Example 110, 3-amino-6-[3-({[(3-fluorophenyl)methyl]amino}carbonyl)phenyl]-N-methylpyrazine-2-carboxamide] was run?
The IC50 was 50 to 1000 nM.

Which IC50 does the source give for `CNC(=O)c1nc(-c2cccc(NC(=O)c3ccc(Cl)cc3)c2)cnc1N` [Example 111, 3-amino-6-(3-{[(4-chlorophenyl)carbonyl]amino}phenyl)-N-methylpyrazine-2-carboxamide] here?
Its IC50 is 50 to 1000 nM.

With `CNC(=O)c1nc(-c2cccc(C(=O)NC(C)c3ccc(F)cc3)c2)cnc1N` (stereo not shown) [Example 112, 3-amino-6-[3-({[1-(4-fluorophenyl)ethyl]amino}carbonyl)phenyl]-N-methylpyrazine-2-carboxamide] as the compound, how does the IC50 read?
The IC50 was 1000 to 10000 nM.

How did the IC50 turn out when `CNC(=O)c1nc(-c2cccc(C(=O)NCc3cccc(OC)c3OC)c2)cnc1N` [Example 113, 3-amino-6-{3-[({[2,3-bis(methyloxy)phenyl]methyl}amino)carbonyl]phenyl}-N-methylpyrazine-2-carboxamide] was run?
The IC50 was 50 to 1000 nM.

For `CNC(=O)c1nc(-c2cccc(C(=O)N(Cc3ccccc3)Cc3ccccc3)c2)cnc1N` [Example 114, 3-amino-6-(3-{[bis(phenylmethyl)amino]carbonyl}phenyl)-N-methylpyrazine-2-carboxamide], which IC50 is on record?
The IC50 was 1000 to 10000 nM.

`CNC(=O)c1nc(-c2cccc(C(=O)NCc3ccc(OC)cc3OC)c2)cnc1N` [Example 115, 3-amino-6-{3-[({[2,4-bis(methyloxy)phenyl]methyl}amino)carbonyl]phenyl}-N-methylpyrazine-2-carboxamide] was tested. Which IC50 did it give?
Its IC50 is 50 to 1000 nM.

For `CCN(Cc1ccncc1)C(=O)c1cccc(-c2cnc(N)c(C(=O)NC)n2)c1` [Example 116, 3-amino-6-(3-{[ethyl(pyridin-4-ylmethyl)amino]carbonyl}phenyl)-N-methylpyrazine-2-carboxamide], which IC50 is on record?
Its IC50 is 1000 to 10000 nM.

Which IC50 does the source give for `CNC(=O)c1nc(-c2cccc(C(=O)N3CCN(Cc4ccccc4)CC3)c2)cnc1N` [Example 117, 3-amino-N-methyl-6-(3-{[4-(phenylmethyl)piperazin-1-yl]carbonyl}phenyl)pyrazine-2-carboxamide] here?
Its IC50 is 1000 to 10000 nM.

Which IC50 does the source give for `CNC(=O)c1nc(-c2cccc(C(=O)NC3CCN(Cc4ccccc4)CC3)c2)cnc1N` [Example 118, 3-amino-N-methyl-6-[3-({[1-(phenylmethyl)piperidin-4-yl]amino}carbonyl)phenyl]pyrazine-2-carboxamide] here?
Its IC50 is 50 to 1000 nM.

With `CNC(=O)c1nc(-c2cccc(NC(=O)c3ccc(C)cc3)c2)cnc1N` [Example 119, 3-amino-N-methyl-6-(3-{[(4-methylphenyl)carbonyl]amino}phenyl)pyrazine-2-carboxamide] as the compound, how does the IC50 read?
The IC50 was 50 to 1000 nM.

`CNC(=O)c1nc(-c2cccc(C(=O)NCc3cnc(C)cn3)c2)cnc1N` [Example 120, 3-amino-N-methyl-6-[3-({[(5-methylpyrazin-2-yl)methyl]amino}carbonyl)phenyl]pyrazine-2-carboxamide] was tested. Which IC50 did it give?
Its IC50 is 1000 to 10000 nM.

With `CNC(=O)c1nc(-c2cccc(C(=O)NCc3ccccn3)c2)cnc1N` [Example 121, 3-amino-N-methyl-6-(3-{[(pyridin-2-ylmethyl)amino]carbonyl}phenyl)pyrazine-2-carboxamide] as the compound, how does the IC50 read?
Its IC50 is 50 to 1000 nM.

For `CNC(=O)c1nc(-c2cccc(C(=O)NCc3cccnc3)c2)cnc1N` [Example 122, 3-amino-N-methyl-6-(3-{[(pyridin-3-ylmethyl)amino]carbonyl}phenyl)pyrazine-2-carboxamide], which IC50 is on record?
Its IC50 is 50 to 1000 nM.

Which IC50 does the source give for `CNC(=O)c1nc(-c2cccc(C(=O)NCc3ccncc3)c2)cnc1N` [Example 123, 3-amino-N-methyl-6-(3-{[(pyridin-4-ylmethyl)amino]carbonyl}phenyl)pyrazine-2-carboxamide] here?
Its IC50 is 50 to 1000 nM.

With `CNC(=O)c1nc(-c2cccc(NC(=O)c3ccco3)c2)cnc1N` [Example 124, 3-amino-6-{3-[(furan-2-ylcarbonyl)amino]phenyl}-N-methylpyrazine-2-carboxamide] as the compound, how does the IC50 read?
Its IC50 is 50 to 1000 nM.
